Data as given in patent US20150216182A1, “COMPOSITIONS AND METHODS OF THE ATTRACTION AND REPULSION OF INSECTS” (Olfactor Laboratories, Inc., priority 2012, published 2015).
Where a name gives a salt, the structure may show the parent alone. Read-outs that look alike come from different tables or passages of the source.

Columns and labels:
female mosquitoes = experiment: whole plant or invertebrate; details: 2 h; for mortality at 200 µg/mL: read-out: % mortality with 0.2 mg/ml; for mortality at 2000 µg/mL: read-out: % mortality with 2 mg/ml
larvae = experiment: larvicidal activity assay; assay type: in vivo; details: for pest or weed control at 0.25 %: read-out: % Lethality with 0.25% compound conc.; for pest or weed control at 100 ppm: read-out: % Lethality at 100 ppm
Procedure: A 6-well plate (Corning Life Sciences, Tewksbury, Mass.) is used to test a compound's larvicidal activity. […] After a 24 hour exposure, the number of dead larvae are counted and recorded.
The results are presented in Table 17 as % lethality (the number of dead larvae divided by the total number of larvae).

cpA neurons = experiment: extracellular single-sensillum electrophysiology: inhibition of CO2-responsive (cpA) neuronal activity; details: for Class: Table 10, single compounds, percent reduction in cpA activity compared to baseline; for Class (inhibitor class of the individual component): Inh = inhibitor
[1] = tested on: bed bugs (Cimex lectularius); experiment: bed bug repellency assay; assay type: in vivo; details: for % Rep (bed bug repellency): compound or combination on filter paper harborage, ten bed bugs
Procedure: Compounds and combinations of compounds of the present invention were assayed for their ability to repel bed bugs (Cimex lectularius) using a bed bug repellency assay. This assay takes advantage of the bed bug's natural tendency to seek harborage. Two petri dishes were obtained and the inner areas of each were sanded down (leaving the perimeter smooth.) Talc was applied on the perimeter and on the inside walls of the petri dishes with a small paint brush to prevent bed bugs from escaping. A cut off top portion of a solo bathroom cup was placed upside down in the center of one petri dish. A large plastic secondary container was gathered and a paper towel was laid down inside the bottom. The petri dish was then placed inside and ten bed bugs were placed inside the cut off portion of the solo cup. Next, two pieces of filter paper were cut down the middle to yield 4 equally sized halves. 3 pieces were placed inside a glass dish ([…]) and the remaining piece was placed in a separate dish. All 4 pieces were folded down the middle to create a “tent” or “harborage” when laid such that the folded crease faced up. 100 microliters of isopropyl alcohol was pipetted into 3 pieces of filter paper (all housed in the first glass dish.) In a separate 4 ml vial, 90 microliters of isopropyl alcohol was combined and vortexed with 10 microliters of the compound or compound combination being tested. 100 microliters of this solution [comprising a total of 100 mg of compound(s)] was pipetted onto the filter paper in the separate dish. All filter papers were then allowed to dry. Once dry, experiments were conducted first with two filter paper halves comprising only the isopropyl alcohol (control experiment) and then with the remaining filter paper halves [one with only isopropyl alcohol and one comprising the test compound(s).] Filter paper halves were placed on opposing sides of experimental petri dishes and bed bugs were allowed to move freely within the dishes for 5 minutes. Movement of bed bugs beneath each filter paper tent was recorded. […] In the Table, “Rep” refers to repellency and “Cmpd” refers to compound.

[2] = 0.25% compound, 24 hour exposure, dead larvae / total larvae
[3] = 100 ppm compound, 24 hour exposure, dead larvae / total larvae
[4] = Table 13, single component alone

SMILES | mortality at 200 µg/mL (female mosquitoes) | mortality at 2000 µg/mL (female mosquitoes) | pest or weed control at 0.25 % (larvae; [2]) | pest or weed control at 100 ppm (larvae; [3]) | Class (cpA neurons) | % Rep (bed bug repellency) [1] | further results
CC/C=C\CCOC(C)=O [OLI0073, cis-3-hexenyl acetate] | 0% | 0% | 95% | 0% | Moderate Inhibitor (moderate inhibitors (reducing activity by 40-60%)) |  | Class (inhibitor class of the individual component) (cpA neurons; [4]): Mod
CCC(=O)OCCc1ccccc1 [OLI0076, Phenethyl propionate] | 0% | 100% | 100% | 0% | Moderate Inhibitor (moderate inhibitors (reducing activity by 40-60%)) |  | Class (inhibitor class of the individual component) (cpA neurons; [4]): Mod; Class (inhibitor class of the individual component) (cpA neurons; Table 16, single component alone): Mod; inhibitor class of single compound (cpA neurons; single compound): moderate inhibitor (40-60% reduction in neuronal activity as compared to baseline activity of the neuron)
CC12CCC(CC1)C(C)(C)O2 [OLI0087, Eucalyptol] |  |  |  |  | Mild Inhibitor (mild inhibitors (reducing activity by 20-40%)) |  | 
CC(=O)CC/C=C(\C)CCC=C(C)C [OLI0089, Geranylacetone] |  |  |  |  | Mild Inhibitor (mild inhibitors (reducing activity by 20-40%)) |  | Class (inhibitor class of the individual component) (cpA neurons; [4]): Mild
CCCC(=O)OC/C=C(\C)CCC=C(C)C [OLI0090, Geranylbutyrate] |  |  |  |  | Mild Inhibitor (mild inhibitors (reducing activity by 20-40%)) |  | 
CCCCC1OC(=O)CC1C (centres unmarked) [OLI0094, whiskey lactone] |  |  |  |  | Mild Inhibitor (mild inhibitors (reducing activity by 20-40%)) |  | 
COc1ccc(C=O)cc1OC [OLI0095, Veratraldehyde] |  |  |  |  | Mild Inhibitor (mild inhibitors (reducing activity by 20-40%)) |  | Class (inhibitor class of the individual component) (cpA neurons; [4]): Mild
C=CCOC(=O)C=Cc1ccccc1 [OLI0104, allyl cinnamate] | 0% | 45% | 100% | 15% |  | 54% | 
CCC(=O)OC/C=C/c1ccccc1 [OLI0105, trans-cinnamyl propionate] | 0% | 85% | 100% | 0% |  | 35% | 
O=COCC=Cc1ccccc1 [OLI0107, cinnamyl formate] | 0% | 100% | 100% | 0% |  | 100% | 
CCC(=O)OCC=Cc1ccccc1 [OLI0109, cinnamyl propionate] | 0% | 100% | 100% | 0% |  | 41% | 
CCOC(=O)C=Cc1ccccc1 [OLI0110, ethyl cinnamate] | 0% | 100% | 100% | 0% |  | 59% | 
COC(=O)C=Cc1ccccc1 [OLI0113, methyl cinnamate] | 0% | 100% | 100% | 0% |  | 68% | 
COC(=O)/C=C/c1ccccc1 [OLI0114, methyl trans-cinnamate] | 0% | 100% | 100% | 0% |  | 70% | 
CC1CCC(C(C)C)C(O)C1 (centres unmarked) [OLI0115, Menthol] | 0% | 0% |  |  |  | 60% | pest or weed control at 100 ppm (larvae; 24 h): 0%; pest or weed control at 0.25 % (larvae; 24 h): 100%
CCCCCCOC(=O)CCC [OLI0119, hexyl butyrate] | 0% | 0% | 15% | 0% |  | 59% | 
O=CCc1ccccc1 [OLI0121] |  |  |  |  |  | 100% | 
CC(C)=CCC/C(C)=C/CO [geraniol] |  |  |  |  |  |  | ability to repel bed bugs ([1]; 100 microliters solution on filter paper tent, 5 minutes): surprisingly strong ability to repel bed bugs
